Literature values, collected in PubChem BioAssay AID1259409 (Chemical Carcinogenesis Research Information System (CCRIS), 2018).
Where “and” joins values, the source holds several entries; their conditions need not be identical. Identical values can stand only once.

System: rodent chemically induced tumor inhibition, incidence and multiplicity
Experiment: CCRIS tumor inhibitor studies

SMILES: c1ccc2c(c1)c1cccc3ccc4cccc2c4c31
- tumour outcome (control, treated, inhibition, significance) (Carcinogen: BENZO[A]PYRENE, 50-32-8, Dose [Inhibitor]: 5 UG IN 0.1 ML ACETONE 3/WK ADMINISTERED SIMULTANEOUSLY WITH CARCINOGEN FOR DURATION OF STUDY (STUDY DURATION: 368 D), Route [Inhibitor]: DERMAL, Species: MOUSE, Strain/Sex: ICR/FEMALE, Target Tissue: Type of Lesion: SKIN: PAPILLOMA, Dose [Carcinogen]: 5 UG IN 0.1 ML ACETONE 3/WK FOR DURATION OF STUDY, Promoter: NONE USED): 14/50 (28%), 24/50 (48%), -71%, not calculated
- tumour outcome (control, treated, inhibition, significance) (Carcinogen: BENZO[A]PYRENE, 50-32-8, Dose [Inhibitor]: 5 UG IN 0.1 ML ACETONE 3/WK ADMINISTERED SIMULTANEOUSLY WITH CARCINOGEN FOR DURATION OF STUDY (STUDY DURATION: 368 D), Route [Inhibitor]: DERMAL, Species: MOUSE, Strain/Sex: ICR/FEMALE, Target Tissue: Type of Lesion: SKIN: SQUAMOUS CARCINOMA, Dose [Carcinogen]: 5 UG IN 0.1 ML ACETONE 3/WK FOR DURATION OF STUDY, Promoter: NONE USED): 10/50 (20%), 9/50 (18%), 10%, not calculated
- tumour outcome (control, treated, inhibition, significance) (Carcinogen: BENZO[A]PYRENE, 50-32-8, Dose [Inhibitor]: 15 UG IN 0.1 ML ACETONE 3/WK ADMINISTERED SIMULTANEOUSLY WITH CARCINOGEN FOR DURATION OF STUDY (STUDY DURATION: 368 D), Route [Inhibitor]: DERMAL, Species: MOUSE, Strain/Sex: ICR/FEMALE, Target Tissue: Type of Lesion: SKIN: PAPILLOMA, Dose [Carcinogen]: 5 UG IN 0.1 ML ACETONE 3/WK FOR DURATION OF STUDY, Promoter: NONE USED): 14/50 (28%), 33/50 (66%), -136%, not calculated
- tumour outcome (control, treated, inhibition, significance) (Carcinogen: BENZO[A]PYRENE, 50-32-8, Dose [Inhibitor]: 15 UG IN 0.1 ML ACETONE 3/WK ADMINISTERED SIMULTANEOUSLY WITH CARCINOGEN FOR DURATION OF STUDY (STUDY DURATION: 368 D), Route [Inhibitor]: DERMAL, Species: MOUSE, Strain/Sex: ICR/FEMALE, Target Tissue: Type of Lesion: SKIN: SQUAMOUS CARCINOMA, Dose [Carcinogen]: 5 UG IN 0.1 ML ACETONE 3/WK FOR DURATION OF STUDY, Promoter: NONE USED): 10/50 (20%), 27/50 (54%), -170%, not calculated

SMILES: CN1C(=O)NC(c2ccccc2)(c2ccccc2)C1=O
- tumour outcome (control, treated, inhibition, significance) (Carcinogen: 7,12-DIEMTHYLBENZ[A]ANTHRACENE, 57-97-6, Dose [Inhibitor]: 0, 200 UG/D IN ETHANOL/DRINKING WATER SOLUTION (1:500 ML) ADMINISTERED TO PINEALECTOMIZED RATS BEGINNING 1 WK POST CARCI, Route [Inhibitor]: ORAL, Species: RAT, Strain/Sex: SPRAGUE-DAWLEY/FEMALE, Target Tissue: Type of Lesion: MAMMARY GLAND: TUMOR, Dose [Carcinogen]: 10 MG/ML SESAME OIL ADMINISTERED ONCE AT 55 D OF AGE, Promoter: NONE USED): 80%, 36%, 55%, p<0.05
- tumour outcome (control, treated, inhibition, significance) (Carcinogen: 7,12-DIMETHYLBENZ[A]ANTHRACENE, 57-97-6, Dose [Inhibitor]: 0, 200 UG/D ETHANOL/DRINKING WATER SOLUTION (1:500 ML) ADMINISTERED TO INTACT RATS BEGINNING 1 WK POST CARCINOGEN DOSE A, Route [Inhibitor]: ORAL, Species: RAT, Strain/Sex: SPRAGUE-DAWLEY/FEMALE, Target Tissue: Type of Lesion: MAMMARY GLAND: TUMOR, Dose [Carcinogen]: 10 MG/ML SESAME OIL ADMINISTERED ONCE AT 55 D OF AGE, Promoter: NONE USED): 88%, 24%, 73%, p<0.005
- tumour outcome (control, treated, inhibition, significance) (Carcinogen: 7,12-DIMETHYLBENZ[A]ANTHRACENE, 57-97-6, Dose [Inhibitor]: 0, 200 UG/D IN ETHANOL/DRINKING WATER SOLUTION (1:500 ML) ADMINISTERED TO INTACT RATS BEGINNING 1 WK POST CARCINOGEN DOS, Route [Inhibitor]: ORAL, Species: RAT, Strain/Sex: SPRAGUE-DAWLEY/FEMALE, Target Tissue: Type of Lesion: MAMMARY GLAND: TUMOR, Dose [Carcinogen]: 10 MG/ML SESAME OIL ADMINISTERED ONCE AT 55 D OF AGE, Promoter: NONE USED): 70%, 16%, 77%, p<0.005
- tumour outcome (control, treated, inhibition, significance) (Carcinogen: 7,12-DIMETHYLBENZ[A]ANTHRACENE, 57-97-6, Dose [Inhibitor]: 0, 200 UG/D IN ETHANOL/DRINKING WATER SOLUTION (1:500 ML) ADMINISTERED TO INTACT RATS BEGINNING 1 WK PRIOR TO CARCINOGEN, Route [Inhibitor]: ORAL, Species: RAT, Strain/Sex: SPRAGUE-DAWLEY/FEMALE, Target Tissue: Type of Lesion: MAMMARY GLAND: TUMOR, Dose [Carcinogen]: 10 MG/ML SESAME OIL ADMINISTERED ONCE AT 55 D OF AGE, Promoter: NONE USED): 70%, 27%, 61%, p<0.05 and 88%, 38%, 57%, p<0.05
- tumour outcome (control, treated, inhibition, significance) (Carcinogen: 7,12-DIMETHYLBENZ[A]ANTHRACENE, 57-97-6, Dose [Inhibitor]: 0, 200 UG/D IN ETHANOL/DRINKING WATER SOLUTION (1:500 ML) ADMINISTERED TO PINEALECTOMIZED RATS BEGINNING 1 WK POST CARCI, Route [Inhibitor]: ORAL, Species: RAT, Strain/Sex: SPRAGUE-DAWLEY/FEMALE, Target Tissue: Type of Lesion: MAMMARY GLAND: TUMOR, Dose [Carcinogen]: 10 MG/ML SESAME OIL ADMINISTERED ONCE AT 55 D OF AGE, Promoter: NONE USED): 90%, 31%, 66%, p<0.005
- tumour outcome (control, treated, inhibition, significance) (Carcinogen: 7,12-DIMETHYLBENZ[A]ANTHRACENE, 57-97-6, Dose [Inhibitor]: 0, 200 UG/D IN ETHANOL/DRINKING WATER SOLUTION (1:500 ML) ADMINISTERED TO PINEALECTOMIZED RATS BEGINNING 1 WK PRIOR TO C, Route [Inhibitor]: ORAL, Species: RAT, Strain/Sex: SPRAGUE-DAWLEY/FEMALE, Target Tissue: Type of Lesion: MAMMARY GLAND: TUMOR, Dose [Carcinogen]: 10 MG/ML SESAME OIL ADMINISTERED ONCE AT 55 D OF AGE, Promoter: NONE USED): 90%, 64%, 29%, not calculated
- tumour outcome (control, treated, inhibition, significance) (Carcinogen: 7,12-DIMETHYLBENZ[A]ANTHRACENE, 57-97-6, Dose [Inhibitor]: 0, 200 UG/D IN ETHANOL/DRINKING WATER SOLUTION. (1:500 ML) ADMINISTERED TO PINEALECTOMIZED RATS BEGINNING 1 WK PRIOR TO, Route [Inhibitor]: ORAL, Species: RAT, Strain/Sex: SPRAGUE-DAWLEY/FEMALE, Target Tissue: Type of Lesion: MAMMARY GLAND: TUMOR, Dose [Carcinogen]: 10 MG/ML SESAME OIL ADMINISTERED ONCE AT 55 D OF AGE, Promoter: NONE USED): 80%, 65%, 19%, not calculated

SMILES: C[C@H]1CCCC(=O)CCC/C=C/c2cc(O)cc(O)c2C(=O)O1
- tumour outcome (control, treated, inhibition, significance) (Carcinogen: 7,12-DIMETHYLBENZ[A]ANTHRACENE [57-97-6], Dose [Inhibitor]: 20 UG/L IN 0.05 ML PEANUT OIL 2X/WK FOR 2 WK BEGINNING AT 7 D OF AGE (STUDY DURATION: 24 WK), Route [Inhibitor]: SUBCUTANEOUS, Species: RAT, Strain/Sex: SPRAGUE-DAWLEY/FEMALE, Target Tissue: Type of Lesion: MAMMARY GLAND: TUMOR, Dose [Carcinogen]: 10 MG IN 1 ML PEANUT OIL ONCE AT 45 D OF AGE (STUDY DURATION: 24 WK), Promoter: NONE): 17/30 (57%), 9/30 (30%), 47%, p<0.018

SMILES: CC(C)NCC(O)COc1cccc2ccccc12 (stereo unspecified)
- tumour outcome (control, treated, inhibition, significance) (Carcinogen: 4-(METHYLNITROSAMINO)-1-(3-PYRIDYL)-1-BUTANONE [64091-91-4], Dose [Inhibitor]: 3 MG/KG BW 3X/WK FOR 20 WK IMMEDIATELY PRIOR TO EACH CARCINOGEN DOSE (STUDY DURATION: 52 WK), Route [Inhibitor]: SUBCUTANEOUS, Species: HAMSTER, Strain/Sex: SYRIAN/MALE, Target Tissue: Type of Lesion: LUNG: TUMOR, Dose [Carcinogen]: 10 MG/KG BW 3X/WK FOR 20 WK (STUDY DURATION: 52 WK), Promoter: NONE): 12/15 (80.0%), 6/15 (40%), 50%, not calculated
- tumour outcome (control, treated, inhibition, significance) (Carcinogen: 4-(METHYLNITROSAMINO)-1-(3-PYRIDYL)-1-BUTANONE [64091-91-4], Dose [Inhibitor]: 3 MG/KG BW 3X/WK FOR 20 WK IMMEDIATELY PRIOR TO EACH CARCINOGEN DOSE (STUDY DURATION: 52 WK), Route [Inhibitor]: SUBCUTANEOUS, Species: HAMSTER, Strain/Sex: SYRIAN/MALE, Target Tissue: Type of Lesion: NASAL CAVITY: TUMOR, Dose [Carcinogen]: 10 MG/KG BW 3X/WK FOR 20 WK (STUDY DURATION: 52 WK), Promoter: NONE): 4/15 (26.7%), 4/15 (26.7%), 0%, not calculated
- outcome (Carcinogen: 4-(Methylnitrosamino)-1-(3-pyridyl)-1-butanone, Dose [Inhibitor]: 0.3 mg/100 g bw, 5 x a wk from offspring age of 4 wks-8 mo., Route [Inhibitor]: Subcutaneous injection, Species: Hamster, Strain/Sex: Syrian golden, male and female offspring, Target Tissue: Type of Lesion: Pancreas: Tumor (in offspring), Dose [Carcinogen]: 50 mg/kg once to dams on day 15 of pregnancy, Promoter: Ethanol): 66.6%, 8.3%
- tumour outcome (control, treated, inhibition, significance) (Carcinogen: N-METHYL-N'-NITRO-N-NITROSOGUANIDINE, 70-25-7, Dose [Inhibitor]: 0, 5 MG/KG IN OLIVE OIL SUSPENSION 1/D BEGINNING 1 WK POST LAST CARCINOGEN DOSE AND CONTINUING FOR DURATION OF STUDY (ST, Species: RAT, Strain/Sex: WISTAR/MALE, Target Tissue: Type of Lesion: GLANDULAR STOMACH: ADENOCARCINOMA, Dose [Carcinogen]: 50 UG/ML IN DRINKING WATER FOR 25 WK, Promoter: NONE USED): 15/18 (83%), 11/20 (55%), 34%, not calculated
